# Measurements: US9901592B2 (priority 2008, dated 2018)
# Values joined by “and” are separate entries in the source; they are usually repeats but may differ in a detail not shown here. Equal entries are not always repeated. Where two headings read alike, the source gives them in different places.
# Legend:
# S. pneumoniae [1] = assay: microbe, parasite or virus in culture; assay type: cell-based
# pneumococci = assay: microbe, parasite or virus in culture; assay type: cell-based, S. pneumoniae; conditions: Streptococcus pneumoniae
# S. pyogenes [2] = assay type: cell-based
# S. pneumoniae [3] = assay type: cell-based
# S. pyogenes [4] = assay: microbe, parasite or virus in culture; assay type: cell-based; conditions: for MIC: Streptococcus pyogenes
# M. catarrhalis = assay: microbe, parasite or virus in culture; assay type: cell-based; conditions: Moraxella catarrhalis
structure (smiles),measurement,setting,value
"CCC[C@@H]1C[C@@H](C(=O)N[C@@H]([C@H]2O[C@H](SC)[C@H](O)[C@@H](O)[C@H]2O)[C@H](C)Cl)N(C)C1 [CLN, clindamycin]",nonsusceptibility,S. pneumoniae [1],83.3%
same,MIC90,S. pneumoniae [1]; Streptococcus pneumoniae,> 16 µg/mL
same,MIC50,"pneumococci; pneumococci, L4 mutations (27)",0.06 µg/mL
same,MIC90,"pneumococci; pneumococci, L4 mutations (27)",0.125 µg/mL
same,MIC,"pneumococci; read-out: MIC range, pneumococci, L4 mutations (27)",0.03 to 0.125 µg/mL
same,single step mutation frequency,"S. pyogenes [2]; strain 237 Macrolide-R [L4 mutation], 2 × MIC",<1.0 × 10^−10
same,single step mutation frequency,"S. pyogenes [2]; strain 237 Macrolide-R [L4 mutation], 4 × MIC",<1.0 × 10^−10
same,single step mutation frequency,"S. pyogenes [2]; strain 237 Macrolide-R [L4 mutation], 8 × MIC",<1.0 × 10^−10
same,single step mutation frequency,"S. pyogenes [2]; strain 2011 Macrolide-R [mef(A)], 2 × MIC",<1.0 × 10^−10
same,single step mutation frequency,"S. pyogenes [2]; strain 2011 Macrolide-R [mef(A)], 4 × MIC",<1.0 × 10^−10
same,single step mutation frequency,"S. pyogenes [2]; strain 2011 Macrolide-R [mef(A)], 8 × MIC",<1.0 × 10^−10
same,single step mutation frequency,"S. pyogenes [2]; strain 2094 Macrolide-R [erm(A)], 2 × MIC",2.1 × 10^−7
same,single step mutation frequency,"S. pyogenes [2]; strain 2094 Macrolide-R [erm(A)], 4 × MIC",1.3 × 10^−7
same,single step mutation frequency,"S. pyogenes [2]; strain 2094 Macrolide-R [erm(A)], 8 × MIC",1.1 × 10^−7
same,single step mutation frequency,"S. pyogenes [2]; strain 2132 Macrolide-S, 2 × MIC",<7.7 × 10^−11
same,single step mutation frequency,"S. pyogenes [2]; strain 2132 Macrolide-S, 4 × MIC",<7.7 × 10^−11
same,single step mutation frequency,"S. pyogenes [2]; strain 2132 Macrolide-S, 8 × MIC",<7.7 × 10^−11
same,single step mutation frequency,"S. pneumoniae [3]; strain 1077 Macrolide-S, 2 × MIC",<3.8 × 10^−10
same,single step mutation frequency,"S. pneumoniae [3]; strain 1077 Macrolide-S, 4 × MIC",<3.8 × 10^−10
same,single step mutation frequency,"S. pneumoniae [3]; strain 1077 Macrolide-S, 8 × MIC",<3.8 × 10^−10
same,single step mutation frequency,"S. pneumoniae [3]; strain 1635 Macrolide-R [erm(A)], 2 × MIC",7.3 × 10^−7
same,single step mutation frequency,"S. pneumoniae [3]; strain 1635 Macrolide-R [erm(A)], 4 × MIC",5.5 × 10^−7
same,single step mutation frequency,"S. pneumoniae [3]; strain 1635 Macrolide-R [erm(A)], 8 × MIC",5.6 × 10^−7
same,single step mutation frequency,"S. pneumoniae [3]; strain 2686 Macrolide-R [L4 mutation], 2 × MIC",<1.2 × 10^−9
same,single step mutation frequency,"S. pneumoniae [3]; strain 2686 Macrolide-R [L4 mutation], 4 × MIC",<1.2 × 10^−9
same,single step mutation frequency,"S. pneumoniae [3]; strain 2686 Macrolide-R [L4 mutation], 8 × MIC",<1.2 × 10^−9
same,single step mutation frequency,"S. pneumoniae [3]; strain 3009 Macrolide-R [23S rRNA mutation], 2 × MIC",1.7 × 10^−4
same,single step mutation frequency,"S. pneumoniae [3]; strain 3009 Macrolide-R [23S rRNA mutation], 4 × MIC",7.3 × 10^−9
same,single step mutation frequency,"S. pneumoniae [3]; strain 3009 Macrolide-R [23S rRNA mutation], 8 × MIC",<1.2 × 10^−10
same,single step mutation frequency,"S. pneumoniae [3]; strain 3665 Macrolide-R [mef(A)], 2 × MIC",<2.4 × 10^−10
same,single step mutation frequency,"S. pneumoniae [3]; strain 3665 Macrolide-R [mef(A)], 4 × MIC",<2.4 × 10^−10
same,single step mutation frequency,"S. pneumoniae [3]; strain 3665 Macrolide-R [mef(A)], 8 × MIC",<2.4 × 10^−10
same,single step mutation frequency,"S. pneumoniae [3]; strain 7127 Macrolide-S [S20N in L4, A105V in L22], 2 × MIC",<2.9 × 10^−8
same,single step mutation frequency,"S. pneumoniae [3]; strain 7127 Macrolide-S [S20N in L4, A105V in L22], 4 × MIC",<2.9 × 10^−8
same,single step mutation frequency,"S. pneumoniae [3]; strain 7127 Macrolide-S [S20N in L4, A105V in L22], 8 × MIC",<2.9 × 10^−8
same,strains with resistant clones / strains tested,S. pyogenes [4]; S. pyogenes,2/3 and 2/4
same,MIC,"S. pyogenes [4]; read-out: Initial MIC, strain 237 Macrolide-R [LA mutation], parent",0.06 µg/mL
same,MIC,"S. pyogenes [4]; read-out: Initial MIC, strain 2011 Macrolide-R [mef(A)], parent",0.06 µg/mL
same,MIC,"S. pyogenes [4]; read-out: Initial MIC, strain 2094 Macrolide-R [erm(A)], parent",0.06 µg/mL
same,MIC,"S. pyogenes [4]; read-out: Initial MIC, strain 2132 Macrolide-S, parent",0.06 µg/mL
same,MIC,"S. pyogenes [4]; read-out: Initial MIC, strain 2368 Macrolide-R [erm(B)], parent",> 64 µg/mL
same,MIC,"S. pyogenes [4]; read-out: MIC of parents of resistant clones, S. pyogenes",0.06 µg/mL
same,MIC,"S. pyogenes [4]; read-out: Parental MICs, S. pyogenes, 5 strains with varying resistotypes",0.06 µg/mL
same,MIC,"S. pyogenes [4]; read-out: Selected Resistance (MIC), strain 237 Macrolide-R [LA mutation], after serial passages in the drug",0.5 µg/mL
same,MIC,"S. pyogenes [4]; read-out: Selected Resistance (MIC), strain 2011 Macrolide-R [mef(A)], after serial passages in the drug",0.06 µg/mL
same,MIC,"S. pyogenes [4]; read-out: Selected Resistance (MIC), strain 2094 Macrolide-R [erm(A)], after serial passages in the drug",> 64 µg/mL
same,MIC,"S. pyogenes [4]; read-out: Selected Resistance (MIC), strain 2132 Macrolide-S, after serial passages in the drug",0.06 µg/mL
same,days until resistant clones (MIC increase),"S. pyogenes [4]; daily passages, max. 50",34 to 43 days
same,Retest MIC after 10 Antibioticfree Subcultures,"S. pyogenes [4]; strain 237 Macrolide-R [LA mutation], clone selected with CEM-101",0.03 µg/mL
same,Retest MIC after 10 Antibioticfree Subcultures,"S. pyogenes [4]; strain 237 Macrolide-R [LA mutation], clone selected with CLN",1 µg/mL
same,Retest MIC after 10 Antibioticfree Subcultures,"S. pyogenes [4]; strain 2011 Macrolide-R [mef(A)], clone selected with AZI",0.06 µg/mL
same,Retest MIC after 10 Antibioticfree Subcultures,"S. pyogenes [4]; strain 2094 Macrolide-R [erm(A)], clone selected with AZI",0.06 µg/mL
same,Retest MIC after 10 Antibioticfree Subcultures,"S. pyogenes [4]; strain 2094 Macrolide-R [erm(A)], clone selected with CEM-101",0.06 µg/mL
same,Retest MIC after 10 Antibioticfree Subcultures,"S. pyogenes [4]; strain 2094 Macrolide-R [erm(A)], clone selected with CLN",>64 µg/mL
same,Retest MIC after 10 Antibioticfree Subcultures,"S. pyogenes [4]; strain 2094 Macrolide-R [erm(A)], clone selected with CLR",0.06 µg/mL
same,Retest MIC after 10 Antibioticfree Subcultures,"S. pyogenes [4]; strain 2094 Macrolide-R [erm(A)], clone selected with TEL",>64 µg/mL
same,Retest MIC after 10 Antibioticfree Subcultures,"S. pyogenes [4]; strain 2132 Macrolide-S, clone selected with AZI",0.03 µg/mL
same,Retest MIC after 10 Antibioticfree Subcultures,"S. pyogenes [4]; strain 2368 Macrolide-R [erm(B)], clone selected with CEM-101",>64 µg/mL
same,Retest MIC after 10 Antibioticfree Subcultures,"S. pyogenes [4]; strain 2368 Macrolide-R [erm(B)], clone selected with TEL",>64 µg/mL
same,MIC90,M. catarrhalis,2 µg/mL
